The record followed here is PubChem BioAssay (NCI).

Test systems include NCI-H226 lung; M14 melanoma; ACHN renal; HCT-15 colon; SK-MEL-28 melanoma; MDA-MB-435; MOLT-4 leukemia; HOP-62 NSCLC; HT29 colon; OVCAR-4 ovarian.
Holding throughout (test): NCI tumour cell line growth inhibition, 48 h

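Each compound was tested at five concentrations against cells in 96-well plates for 48 hours. Abbreviation: GI50, concentration required for 50% inhibition of growth. The concentration for full growth arrest is given as TGI.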

For `CC1(C)Cc2cccc(OCC(O)CN3CCN(c4ccc(F)cc4)CC3)c2O1` (stereo not given), the GI50 was 17.1 µM with NCI-H226 lung; 7.37 µM in the test with M14 melanoma; 9.65 µM in the test on ACHN renal; 13.5 µM with HCT-15 colon; 19.1 µM with SK-MEL-28 melanoma; 10.5 µM in the test with MDA-MB-435. For the same molecule, the GI50 in the test with MOLT-4 leukemia was 20.2 µM; in the test with HOP-62 NSCLC it was 21.9 µM; in the test with HT29 colon, 7.87 µM; in the test with OVCAR-4 ovarian, 13.3 µM. Further, the TGI in the test on NCI-H226 lung was above 50 µM; in the test with M14 melanoma, 15.1 µM; with ACHN renal it was 25 µM; in the test on HCT-15 colon it was above 50 µM; in the test on SK-MEL-28 melanoma, above 50 µM; in the test with MDA-MB-435 it was 25.7 µM. In addition, the TGI is above 50 µM in the test on MOLT-4 leukemia, above 50 µM in the test on HOP-62 NSCLC, 17.2 µM in the test with HT29 colon and above 50 µM in the test on OVCAR-4 ovarian.

With `O=C(/C=C/C=C/c1ccccc1)c1ccc(Nc2nc(Nc3ccccc3)nc(Nc3ccccc3)n2)cc1`, the GI50 is above 100 µM in the test with NCI-H226 lung; 77.5 µM in the test on M14 melanoma; above 100 µM in the test on ACHN renal; above 100 µM with HCT-15 colon; 46.9 µM with SK-MEL-28 melanoma; above 100 µM with MDA-MB-435. In addition, the GI50 in the test on MOLT-4 leukemia was 9.89 µM; in the test on HOP-62 NSCLC, above 100 µM; in the test with HT29 colon, above 100 µM; in the test on OVCAR-4 ovarian it was 88.1 µM. Further, the TGI in the test with NCI-H226 lung, in the test with M14 melanoma, in the test on ACHN renal, in the test with HCT-15 colon, in the test with SK-MEL-28 melanoma and in the test on MDA-MB-435 was above 100 µM in each case. Further, the TGI in the test with MOLT-4 leukemia is 35.8 µM; in the test with HOP-62 NSCLC, above 100 µM; in the test with HT29 colon, above 100 µM; in the test on OVCAR-4 ovarian it was above 100 µM.

Consider `O=C(N/N=C/c1coc2ccc(Cl)cc2c1=O)c1ccncc1`, for which the GI50 in the test on NCI-H226 lung is 38.6 µM; in the test with M14 melanoma, 37.5 µM; in the test on ACHN renal it was 29.9 µM; with HCT-15 colon, 44.4 µM; with SK-MEL-28 melanoma, above 100 µM; in the test on MDA-MB-435, 73 µM. Besides, the GI50 in the test with MOLT-4 leukemia is 21.1 µM; with HOP-62 NSCLC, 39.7 µM; in the test with HT29 colon, above 100 µM; in the test on OVCAR-4 ovarian, above 100 µM. Also, the TGI with NCI-H226 lung, in the test with M14 melanoma, in the test on ACHN renal, with HCT-15 colon, in the test with SK-MEL-28 melanoma and in the test with MDA-MB-435 was above 100 µM in each case. In addition, the TGI in the test with MOLT-4 leukemia was 71.2 µM; in the test with HOP-62 NSCLC, above 100 µM; in the test with HT29 colon, above 100 µM; with OVCAR-4 ovarian it was above 100 µM.

For the molecule `C(=N/Nc1ncnc2nc[nH]c12)/c1ccccn1`, the GI50 with NCI-H226 lung was 1.57 µM; in the test on M14 melanoma, 0.766 µM; in the test with ACHN renal, 1.19 µM; in the test with HCT-15 colon it was 1.11 µM; with SK-MEL-28 melanoma it was 1.2 µM; in the test on MDA-MB-435, 1.08 µM. Moreover, the GI50 is 0.367 µM with MOLT-4 leukemia, 0.687 µM with HOP-62 NSCLC, 4.07 µM in the test with HT29 colon and 0.3 µM with OVCAR-4 ovarian. The TGI is 53.1 µM in the test with NCI-H226 lung; 3.63 µM with M14 melanoma; 14.1 µM with ACHN renal; above 100 µM in the test with HCT-15 colon; above 100 µM with SK-MEL-28 melanoma; above 100 µM in the test with MDA-MB-435. Further, the TGI in the test with MOLT-4 leukemia, with HOP-62 NSCLC, in the test with HT29 colon and with OVCAR-4 ovarian was above 100 µM each time.

For the molecule `CCCCCCCCCCCCOC1C(CNC(=O)C2OC3OC(C)(C)OC3C2NC(=O)CN2CCN(c3ccccn3)CC2)OC2OC(C)(C)OC21` (stereo not given), the GI50 in the test on NCI-H226 lung was 1.82 µM; with M14 melanoma it was 1.68 µM; in the test on ACHN renal, 1.77 µM; with HCT-15 colon, 1.76 µM; with SK-MEL-28 melanoma, 2.53 µM; in the test with MDA-MB-435 it was 1.69 µM. The GI50 in the test with MOLT-4 leukemia was 1.86 µM; with HOP-62 NSCLC it was 1.94 µM; in the test with HT29 colon, 1.75 µM; with OVCAR-4 ovarian, 2.52 µM. Further, the TGI in the test with NCI-H226 lung amounted to 3.72 µM; in the test with M14 melanoma it was 3.1 µM; in the test with ACHN renal, 3.21 µM; in the test on HCT-15 colon, 3.31 µM; with SK-MEL-28 melanoma it was 7.47 µM; in the test on MDA-MB-435 it was 3.36 µM. Moreover, the TGI is 4.45 µM in the test on MOLT-4 leukemia, 3.53 µM in the test with HOP-62 NSCLC, 3.34 µM in the test with HT29 colon and 7.7 µM in the test with OVCAR-4 ovarian.

As to `COC(=O)NNc1c([N+](=O)[O-])cnn(-c2ccccc2)c1=O`, the TGI in the test with NCI-H226 lung came out at 9.78 µM; in the test on M14 melanoma, 3.29 µM; in the test on ACHN renal, 10.2 µM; in the test with HCT-15 colon, 5.58 µM; in the test with SK-MEL-28 melanoma, 7.05 µM; in the test on MDA-MB-435, 3.03 µM. The TGI in the test with MOLT-4 leukemia came out at 2.61 µM; in the test on HOP-62 NSCLC it was 14.9 µM; in the test with HT29 colon it was 3.81 µM; in the test with OVCAR-4 ovarian, 3.85 µM.
